Laboratory results published in patent US20140242707A1, “Compositions and Methods for Diagnosing Hypercoagulability and Hypocoagulability” (Philadelphia Health & Education Corporation d/b/a Drexel …, priority 2011, published 2014).

How the values were obtained:
human plasma = details: fibrinolytic environment; cited from earlier work
[1] = system: Smoker and normal subject plasma; assay: Thrombelastography of smoker and normal subject plasma (COHF assay); assay type: biochemical, human; details: for final elastic modulus (G), within group vs Control: smoker and normal plasma, 100 μM CORM-2 or 30 mM PHA
Procedure: Smoking subjects, free of thrombotic or hemorrhagic disease, between the ages of 19 to 50 years of age were recruited (n=20). All comparative data are presented as mean±SD. The male:female ratio (M:F) was 14:6, and the smoking group's age was 32.8±8.7 years. This cohort smoked 1.0±0.4 packs of cigarettes per day. After written consent was obtained, the smoking subjects verified that they had smoked two cigarettes within 90 minutes prior to presentation as they would ordinarily do during the day. Noninvasive pulse oximetry was performed, with COHb found to be 5.0±2.7% for the smoking cohort. Whole blood was obtained from the smokers via venipuncture of an antecubital or hand vein and was anticoagulated with sodium citrate (9 parts blood to 1 part citrate). The blood was immediately centrifuged at 3000×g for 15 minutes at room temperature, with plasma decanted, aliquoted and stored at −80° C. prior to experimentation. Frozen, citrated plasma collected from 20 nonsmoking, age-matched normal subjects (30.7±8.7 years, M:F of 10:10) was obtained from a commercial source. Smoker and normal subject plasma was thawed and subjected to thrombelastographic analyses as previously described for 15 min at 37° C. (Nielsen et al., 2011, Blood Coagul Fibrinolysis, 22: 657-661). […] This pattern of enhanced clot development without decreased time to onset of coagulation is typical of CO exposure (Nielsen et al., 2009, Blood Coagul Fibrinolysis, 20: 377-380; Nielsen et al., 2010, Blood Coagul Fibrinolysis, 21: 349-353; Nielsen et al., 2011, Blood Coagul Fibrinolysis, 22: 657-661). […] Using a modification of the previously described assay (Nielsen et al., 2011, Blood Coagul Fibrinolysis, 22: 657-661), hypercoagulability was defined as a G value 95% confidence interval value of the normal cohort (2720 dynes/cm^2). For COHF likely to be present, G values had to increase≦the average percent seen in normal subjects (≦78%) in the presence of CORM-2, and G values had to decrease≦the average normal percent (≦74%) in the presence of PHA. Using these definitions, 10 smokers were hypercoagulable; 9 smokers had kinetically detectable COHF; and 5 were both hypercoagulable and COHF positive (25% of the cohort). Of interest, 3 smokers had neither hypercoagulability nor detectable COHF (15% of the cohort), with the remaining 12 smokers either hypercoagulable only or COHF positive only (60% of the population). […]

SMILES | increase in MRTG (human plasma) | increase in TTG (human plasma) | average percent increase in G ([1]; normal subjects, 100 μM CORM-2) | final elastic modulus (G), within group vs Control [1] | decrease in MRTG (human plasma) | decrease in TTG (human plasma) | average percent decrease in G ([1]; normal subjects, 30 mM PHA)
[C-]#[O+].[C-]#[O+].[C-]#[O+].[C-]#[O+].[C-]#[O+].[C-]#[O+].[Cl][Ru][Cl].[Cl][Ru][Cl] [CORM-2, tricarbonyldichlororuthenium (II) dimer] | 120% | 113% | 78% | significantly increased | – | – | –
ONc1ccccc1 [PHA, phenylhydroxylamine] | – | – | – | significantly decreased | 30% | 21% | 74%
